Drawing on paper PMC12524789, “The Interplay Between CB2 and NMDA Receptors in Parkinson’s Disease” (International Journal of Molecular Sciences, 2025), this text covers Ki for 1 compound.

pKi: −log10 of the molar value.

This experiment addresses T1, cannabinoid receptor 2 (CB2R) (Homo sapiens, UniProt P34972).
T1 construct: gene CNR2; SNAP-tagged human CB2R in HEK-293T cells
As to the kind of experiment: HTRF competition binding against […] fluorophore-conjugated CM157 in HEK-293T cells; also cAMP and β-arrestin II recruitment. Type of experiment: cell-based. For orientation: TR-FRET usually uses a lanthanide donor and a delayed reading to cut background.

T1 sequence (P34972 whole entry): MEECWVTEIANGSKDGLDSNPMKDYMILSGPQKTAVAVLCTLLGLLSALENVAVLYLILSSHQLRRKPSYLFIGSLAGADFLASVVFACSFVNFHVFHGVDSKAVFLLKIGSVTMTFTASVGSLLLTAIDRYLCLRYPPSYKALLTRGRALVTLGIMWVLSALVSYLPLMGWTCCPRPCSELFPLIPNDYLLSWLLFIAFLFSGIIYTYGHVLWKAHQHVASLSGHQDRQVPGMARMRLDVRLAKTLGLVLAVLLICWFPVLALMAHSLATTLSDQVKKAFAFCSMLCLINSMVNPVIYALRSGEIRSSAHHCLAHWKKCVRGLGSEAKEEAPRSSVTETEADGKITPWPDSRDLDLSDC

By pKi is commonly meant the Ki on a negative log10 scale, so that one unit is a factor of ten. Higher therefore signals a low Ki. With `CCCC(C)(C)c1ccc2c(c1)OC(C)(C)[C@@H]1CC=C(C)C[C@@H]21` [JWH-133], the negative-log Ki (pKi) was 7.74.
